What all share (assay type): cell-based
Experiment [1] relates to tested biofilm-forming Gram-positive pathogens. The experiment in a line: Biofilm inhibition, statements over all tested strains. The settings on record: highest concentration tested. The protocol: Analysis of biofilm inhibition. The assay was performed as previously described (Joseph et al., 2016; Feldman et al., 2012) with minor modifications. […] Next, 100 μL of serial 1:2 dilutions of compounds in TSB+1% glucose (32, 16, 8, 4, 2, 1, and 0.5 μg/mL) were prepared in flat-bottomed 96-well microplates (Costar, Corning). Control wells with no compounds and wells without bacteria containing each tested concentration of the compounds (blanks) were also prepared. An equal volume (100 μL) of bacterial suspensions diluted 1:100 (OD600=0.01) or 1:10 (OD600=0.1) in TSB+1% glucose was added to each well. […] The wells were vigorously rinsed at least four times with doubly distilled water (DDW). Next, 0.4% crystal violet (200 μL) was added to each well. After 45 min, wells were vigorously rinsed three times with DDW to remove unbound dye. After adding 200 μL of 30% acetic acid to each well, the plate was shaken for 15 min to release the dye. Biofilm formation was quantified by measuring the difference between absorbance of untreated and treated bacterial samples for each tested concentration of the compounds and the absorbance of appropriate blank well at 600 nm (A600) using Tecan plate reader. The MBIC50 was defined as the lowest concentration at which at least 50% reduction in biofilm formation was measured compared to untreated cells. […]

In another experiment the test system is S. aureus ATCC 29213. Description: Biofilm inhibition, crystal violet staining (MBIC50). The settings on record: double-dilution method; Table 1; read-out: MBIC50, strain B. The protocol: (§1) Analysis of biofilm inhibition. The assay was performed as previously described (Joseph et al., 2016; Feldman et al., 2012) with minor modifications. […] Next, 100 μL of serial 1:2 dilutions of compounds in TSB+1% glucose (32, 16, 8, 4, 2, 1, and 0.5 μg/mL) were prepared in flat-bottomed 96-well microplates (Costar, Corning). Control wells with no compounds and wells without bacteria containing each tested concentration of the compounds (blanks) were also prepared. An equal volume (100 μL) of bacterial suspensions diluted 1:100 (OD600=0.01) or 1:10 (OD600=0.1) in TSB+1% glucose was added to each well. […] The wells were vigorously rinsed at least four times with doubly distilled water (DDW). Next, 0.4% crystal violet (200 μL) was added to each well. After 45 min, wells were vigorously rinsed three times with DDW to remove unbound dye. After adding 200 μL of 30% acetic acid to each well, the plate was shaken for 15 min to release the dye. Biofilm formation was quantified by measuring the difference between absorbance of untreated and treated bacterial samples for each tested concentration of the compounds and the absorbance of appropriate blank well at 600 nm (A600) using Tecan plate reader. The MBIC50 was defined as the lowest concentration at which at least 50% reduction in biofilm formation was measured compared to untreated cells. Each concentration of compound was tested in five replicates, and three to six independent experiments were performed.

The subject of experiment [2] is S. aureus subsp. aureus Rosenbach ATCC 33592 (MRSA). The description is as above. The conditions noted are these: double-dilution method; Table 1; read-out: MBIC50, strain A. The protocol:
as §1

The subject of a further experiment is S. mutans ATCC 700610. The experiment is described as above. The conditions noted are these: double-dilution method; Table 1; read-out: MBIC50, strain F. As for the experimental part:
as §1

In a further experiment the test system is S. epidermidis RP62A. The experiment is described as above. The settings on record: double-dilution method; Table 1; read-out: MBIC50, strain E. The protocol: as §1
A further experiment relates to S. aureus BAA/043. Described as above. The conditions noted are these: double-dilution method; Table 1; read-out: MBIC50, strain C. As for the experimental part: as §1
The test system of a further experiment is E. faecalis ATCC 29212. Described as above. The settings on record: double-dilution method; Table 1; read-out: MBIC50, strain D. As for the experimental part: as §1
The next experiment deals with mature biofilms. The experiment in a line: Biofilm eradication. The conditions noted are these: mature 24-h-old biofilms. As for the experimental part: Analysis of biofilm eradication. Biofilm eradication activity of the tested compounds determined against mature 24-h-old biofilms was performed as previously described (Pompilio et al., 2015). […] Untreated biofilm samples were used as control. Biofilms were quantified by measuring the absorbance at 600 nm. […] Concentrations were tested in five replicates, and three independent experiments were performed.

Experimental findings from US12398092B2, “Method for inhibiting or disrupting biofilm formation, or reducing biofilm” (RAMOT AT TEL-AVIV UNIVERSITY LTD., priority 2015, dated 2025) are described below.

Regarding `C[N+](C)(C)C.[Cl-]` [TMA—Cl, tetramethylammonium chloride], in experiment [1], the “Biofilm formation: no inhibition up to (concentration)” value is more than 208 µM. Also, the IC50 (in the experiment on S. aureus ATCC 29213; in experiment [2]; in the experiment with S. mutans ATCC 700610; with S. epidermidis RP62A; in the experiment with S. aureus BAA/043; in the experiment on E. faecalis ATCC 29212) was more than 292 µM each time.

As for `C[N+](C)(C)C.[Br-]` [TMA—Br, tetramethylammonium bromide], the “Biofilm formation: no inhibition up to (concentration)” value in experiment [1] was more than 292 µM. The IC50 (with S. aureus ATCC 29213; in experiment [2]; in the experiment with S. mutans ATCC 700610; in the experiment on S. epidermidis RP62A; in the experiment with S. aureus BAA/043; in the experiment on E. faecalis ATCC 29212) was more than 208 µM in each case.

Consider “deca-trimethylammonium pillar[5]arene [Compound 21]”, for which, in the experiment with mature biofilms, the “Eradication of mature biofilms” value was “did not eradicate mature biofilms”. Besides, the IC50 in the experiment on S. aureus ATCC 29213 turned out to be 3.5 µM; in experiment [2], 0.9 µM; in the experiment with S. mutans ATCC 700610, 1.8 µM; with S. epidermidis RP62A, 3.5 µM; in the experiment on S. aureus BAA/043 it was 3.5 µM; in the experiment with E. faecalis ATCC 29212, 0.9 µM.

Consider “deca-N-methyl-imidazolium pillar[5]arene [Compound 22]”, for which the IC50 amounted to 1.6 µM with S. aureus ATCC 29213; 0.8 µM in experiment [2]; 6.4 µM in the experiment on S. mutans ATCC 700610; 3.2 µM in the experiment with S. epidermidis RP62A; 1.6 µM with S. aureus BAA/043; 0.4 µM with E. faecalis ATCC 29212.
